Test results reported in article PMC5815658 (Journal of Medicinal Chemistry, 2017).
≈ marks a conversion by molar mass, not a printed value. Entries after “also recorded” stand apart in the source; their conditions may differ. Read-outs that look alike come from different tables or passages of the source.

Assays:
[1] = molecular target: T1, CRBN (Homo sapiens, UniProt Q96SW2); assay: Rescue of PDP 16 pirin depletion by CRBN-binding competitive ligand in SK-OV-3 cells; format: cell-based; details: 10 μM, 4 h pretreatment, then PDP 16 (5 nM) 2 h
T1 construct: endogenous in cells; host or cells: SK-OV-3
Experimental: Cell line: The human ovarian carcinoma cell line (SK-OV-3) was obtained from an ICR collaborator in the 1990s. It was passaged in vivo in athymic mice to increase its tumorigenicity and reliability as a xenograft, and used within 10 passages of banked stocks.
(§1) Prior to use, the cells were analyzed by short tandem repeat (STR) profiling. Polymorphic STR loci were amplified using a polymerase chain reaction (PCR) primer set. The PCR product (each locus being labelled with a different fluorophore) was analyzed simultaneously with size standards using automated fluorescent detection. The number of repeats at 10 different loci (as recommended by the American Type Culture Collection, ATCC) was used to define the STR profile and this was cross-referenced with online databases to confirm authenticity. […]
the ATCC reference line (LGC Promochem, UK). The cells were free of mycoplasma contamination as determined by a sensitive nested PCR protocol (Venor GeM kit, Minerva Biolabs, Germany). […]
Samples were sonicated and centrifuged at 20,000 x g for 15 min and the protein extract (supernatant) collected. The total protein of samples was determined using a bicinchoninic acid (BCA) protein assay kit (Thermo Fisher Scientific). […]
Samples were treated, harvested and lysed as described above. […] The data was analyzed with the Compass software (ProteinSimple). […]

[2] = molecular target: T2, CRBN-DDB1 complex (Homo sapiens, UniProt Q96SW2); assay: CRBN/DDB1 fluorescence polarization competition assay; format: binding
T2 construct: His6-ZZ-HRV3C (N); made in house; host or cells: Sf9 insect cells (baculovirus co-infection)
Experimental: CRBN/DDB1 Fluorescence Polarization Assay […]
Unless otherwise stated, the aqueous assay buffer contained 0.02 M HEPES((4-(2-hydroxyethyl)-1-piperazineethanesulfonic acid)) pH 8.0, 0.15 M NaCl, 0.5 mM TCEP ((tris(2-carboxyethyl)phosphine)), 0.05% Tween 20. The assay was conducted using 384 well black plates (ProxiPlate F Plus, Perkin-Elmer, Massachusetts, USA).
Plate Reader. […] Fluorescence […]
polarization was measured in units of millipolarization (mP) and are background corrected. Data were plotted and analyzed using […]
All experiments were performed in triplicate unless otherwise stated. Values are quoted as the geometric […]
Each graph is a representative example of a single biological repeat unless otherwise stated.
CRBN/DDB1 Protein Expression & Purification
Protein expression and purification methods adapted from Lopez-Girona et al.5 Full length human CRBN (accession number NM016302) was amplified by PCR & inserted downstream of the polyhedrin promoter of a pFBDM expression vector which had been modified to introduce a N-terminal His6-ZZ-HRV3C tag. Full length human DDB1 (accession number NM001923) was amplified by PCR with primers which introduced a C-terminal StrepTag and inserted downstream of the p10 promoter of a separate pFBDM expression vector. Baculoviruses were generated according to Bac-to-Bac protocols (Invitrogen) and used to co-infect Sf9 cells grown @ 27 °C in shaker flasks using Insect-XPRESS media (Lonza). Cells were harvested 48 hours post infection and frozen. For purification, pellets were thawed & resuspended in 5 volumes of Histrap buffer A (see below) and lysed […]
Superdex 200 (HiLoad 26/600), ResourceQ (6 mL) and finally a second Superdex 200 (HiLoad 26/600) column. All columns were from GE Healthcare and all purification steps were performed @ 4 °C. HisTrap buffer A: 50mM Tris (2-Amino-2-(hydroxymethyl)propane-1,3-diol), 500mM NaCl, 0.5mM TCEP ((tris(2-carboxyethyl)phosphine), 5% glycerol, pH 8.0. HisTrap Buffer B: + 250 mM imidazole. Superdex 200 buffer: 50mM Tris, 200mM NaCl, 0.5mM TCEP, 5% glycerol, pH 8.0. Resource Q buffer A: 50mM Tris, 0.5mM TCEP, 5% Glycerol, pH8.0. Resource Q buffer B + 1M NaCl.
California, USA) to prepare CRBN/DDB1 concentrations from 0.1 to 500 nM in 10 µL final assay volume containing 5 nM FP- […]
point prior to analysis. The KD was calculated using non-linear regression and a one-site specific binding model.
Analysis of competition assay FP-probe bound fraction […]
fb=probe bound fraction, KD=probe dissociation constant, L0=probe concentration, R0=protein concentration, Ki=ligand […]
CRBN/DDB1 Competition Assay
Compounds as solutions in DMSO were dispensed using an ECHO 550 Liquid Handler (Labcyte Inc).
Tracer controls (5 nM FP-probe S18 assay buffer only) and bound tracer controls (5 nM and 80 nM CRBN/DDB1) were included on each assay plate . Plates were incubated overnight at 4 °C before warming to room temperature and fluorescence polarization measured using an EnVision plate reader (Perkin -Elmer, Massachusetts, USA). IC 50 values […]
Table S2. CRBN/DDB1 Control Compounds

[3] = molecular target: T3, pirin protein in SK-OV-3 human ovarian cancer cells (Homo sapiens, UniProt O00625); assay: Pirin depletion in SK-OV-3 cells (immunoblot / capillary electrophoresis immunoassay); format: cell-based; details: SK-OV-3 cells, Figure S18
T3 construct: endogenous in cells; host or cells: SK-OV-3
T3 sequence (O00625 1-290): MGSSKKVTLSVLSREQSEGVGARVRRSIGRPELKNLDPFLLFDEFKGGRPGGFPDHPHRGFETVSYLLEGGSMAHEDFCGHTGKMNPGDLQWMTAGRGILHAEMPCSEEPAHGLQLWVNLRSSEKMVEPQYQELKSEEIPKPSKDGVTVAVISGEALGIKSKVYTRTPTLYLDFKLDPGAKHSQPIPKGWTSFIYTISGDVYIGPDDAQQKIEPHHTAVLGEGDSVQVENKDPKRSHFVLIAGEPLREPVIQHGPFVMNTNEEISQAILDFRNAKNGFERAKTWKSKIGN
Experimental: in vivo in athymic mice to increase its tumorigenicity and reliability as a xenograft, and used within 10 passages of banked stocks.
as §1
the ATCC reference line (LGC Promochem, UK). […]
nested PCR protocol (Venor GeM kit, Minerva Biolabs, Germany). Cells were grown in DMEM/10 % FCS, 2 mM glutamine and nonessential amino acids in 5 % CO2.
SK-OV-3 cells were treated as for each experimental condition. Cells were harvested and lysed by scraping in urea lysis buffer (20 mM HEPES pH 8.0, 9 M urea, 1 mM sodium orthovanadate, 2.5 mM sodium pyrophosphate, 1 mM β-glycerophosphate). […]
of samples was determined using a bicinchoninic acid (BCA) protein assay kit (Thermo Fisher Scientific). Western blotting was carried out as previously described.10 Pirin and GAPDH antibodies were obtained from Abcam (ab157212) and Merck […]
Samples were treated, harvested and lysed as described above. A total of 5 μL of 0.2 mg/mL protein was loaded into plates and capillary western analysis was carried out according to the manufacturer’s instructions (ProteinSimple WES). The data was analyzed with the Compass software (ProteinSimple).
Sigma-Aldrich and Cell Signaling Technology, respectively.
10 Sharp SY, Boxall K, Rowlands M, Prodromou C, Roe SM, Maloney A, Powers M, Clarke PA, Box G, Sanderson S, Patterson L, Matthews TP, Cheung KM, Ball K, Hayes A, Raynaud F, Marais R, Pearl L, Eccles S, Aherne W, McDonald E, Workman P. In vitro biological characterization of a novel, synthetic diaryl pyrazole resorcinol class of heat shock protein 90 inhibitors.

[4] = Chemical stability as solid and in DMSO stock solution; format: physicochemical; details: room temperature, data not shown
[5] = PDP aqueous stability protocol; details: 37 °C, pH 7.4 phosphate buffer
[6] = LogD7.4 determination by RP-HPLC; details: pH 7.4
[7] = Kinetic solubility determination by RP-HPLC; details: PBS, pH 7.4, aqueous buffer, kinetic from dmso stock
[8] = molecular target: T4, pirin (Homo sapiens, UniProt O00625); assay: Pirin SPR (surface plasmon resonance) binding
T4 sequence (O00625 1-290): T3 sequence (O00625 1-290)

O=C1CCC(N2C(=O)c3ccccc3C2=O)C(=O)N1 (stereo not shown) [Thalidomide]
Rescue of pirin depletion by thalidomide pretreatment [1]: rescues pirin protein depletion; also recorded: successfully rescued pirin depletion

O=C(COc1cccc2c1C(=O)N(C1CCC(=O)NC1=O)C2=O)NCCOCCC(=O)N1CCN(Cc2ccc3cc(C(=O)Nc4cc(NC(=O)c5ccc6c(c5)OCCO6)ccc4F)ccc3n2)CC1 (stereo not shown) [PDP 10, N-(5-(2,3-Dihydrobenzo[b][1,4]dioxine-6-carboxamido)-2-fluorophenyl)-2-((4-(3-(2-(2-((2-(2,6-dioxopiperidin-3-yl)-1,3-dioxoisoindolin-4-yl)oxy)acetamido)ethoxy)propanoyl)piperazin-1-yl)methyl)quinoline-6-carboxamide]
IC50 ([2]; CRBN/DDB1 FP IC50, single repeat N=2, best-fit value, variable slope four parameters): 331 nM
IC50 ([2]; best-fit value, variable slope four parameters, read-out: CRBN/DDB1 FP IC50, single repeat N=1): 568 nM
IC50 ([2]; best-fit value, variable slope four parameters, read-out: CRBN/DDB1 FP IC50, single repeat N=3): 377 nM
Ki ([2]; calculated from geometric mean CRBN-DDB1 IC50 and FP-probe KD): 95 nM
IC50 ([2]; column statistics, read-out: CRBN/DDB1 FP pIC50, mean of 3 values (unrounded) (converted)): 414 nM
IC50 ([2]; displacement of thalidomide derived fluorescent probe, geometric mean n = 3, read-out: CRBN/DDB1 FP IC50): 410 nM
IC50 ([2]; n = 3 independent biological repeats, read-out: CRBN/DDB1 FP pIC50±SEM (converted)): 417 nM
Depletion of intracellular pirin expression ([3]; 3.0 μM total concentration, up to 48 h): clear and time-dependent depletion of intracellular pirin expression
Compound exposure needed before pirin degradation was observed [3]: at least 24 h
Time stable as a solid and in DMSO stock solution [4]: > 1 month
Half-life (aqueous stability) [5]: ~4 h
half-life at 100 µM ([5]; phosphate buffer (PBS), pH 7.4, Half-life (aqueous stability)): 4.1 h
chromatographic logD [6]: 1.9
solubility kinetic at 120 min [7]: 5 µM (≈ 4.85 µg/mL)
Kd ([8]; Pirin SPR KD, equilibrium analysis, one site specific binding model, geometric mean n = 3): 230 nM
Kd ([8]; Pirin SPR KD, representative single repeat, best-fit value, one site specific binding): 224 nM
Kd ([8]; Pirin SPR pKD±SEM, n = 3 independent biological repeats): 234 nM
Measured Rmax/Theoretical Rmax ([8]; SPR): 0.40
